Experimental data: PMC8797470, “Disruption of the pentraxin 3/CD44 interaction as an efficient therapy for triple‐negative breast cancers” (Clinical and Translational Medicine, 2022)
Ends that are not written are not given here.

Legend:
[1] = system: RANKL, MMP2, NANOG and TWIST2 transcription in MDA-MB-231 cells; experiment: Real-time quantitative PCR of PTX3-induced genes; format: cell-based, human; conditions: wortmannin 100 nM, BAY 11-7085 2 μM, PD98059 10 μM; pre-treated 1 h, then PTX3 24 h
Source text: TRIsure RNA extraction reagent (Invitrogen) extracted total RNA. SuperScript™ III Reverse Transcriptase (Invitrogen) was used to synthesis cDNA. Next, SensiFAST™ SYBR (BIOLINE) was applied to perform real‐time quantitative PCR (Q‐PCR) assay. CFX connect Real‐Time PCR System (BIO‐RAD) executed real‐time fluorescence monitoring and the melting curve analysis according to the manufacturer's recommendations. The following pairs of specific primers—human CEBPD (F): 5′‐[…]‐3′ and CEBPD (R): 5′‐[…]‐3′, human PTX3 (F): 5′‐ […]‐3′ and PTX3 (R): 5′‐ […]‐3′, human MMP2 (F): 5′‐ […]‐3′ and MMP2 (R): 5′‐ […]‐3′, human RANKL (F): 5′‐ AGAGC GCAGATGGATCCTAA‐3′ and RANKL (R): 5′‐ TTCCTTTTGCACAGC TCCTT‐3′, human TWIST2 (F): 5′‐[…]‐3′ and TWIST2 (R): 5′‐[…]‐3′, human NANOG (F): 5′‐[…]‐3′ and NANOG (R): 5′‐ […]‐3′, human GAPDH (F): 5′‐ […]‐3′ and GAPDH (R): 5′‐ […]‐3′.

4T1-Luc2 cells = experiment: Transwell migration assay, luciferase read-out; format: cell-based, mouse; conditions: single peptide, with PTX3 treatment
Source text: (§1) In migration assay, MDA‐MB‐231 cells seeded in 8.0 μm pore polycarbonate membrane inserts (BD Biosciences) in 24‐well plates. In Matrigel invasion assay, inserts were pre‐coated with an appropriate amount of Matrigel first, and the same number of cells seeded on the Matrigel. After cells adhered on the inserts, serum‐free DMEM medium added in the upper wells. Serum‐free medium containing the treatments of TGF‐β1, PTX3, PTX3NA, PTX3/N, PTX3/C, RI37, GI40, AD9, GR9, IgG1κ, PTX3 Ab‐10 or PTX3 Ab‐49 were then mixed into the lower wells of the 24‐well plates. After incubating for 18 h, cells outside the insert were removed by wiping. The inside the inserts were then stained by 4′,6‐diamidino‐2‐phenylindol (DAPI). Fluorescence microscope was used for counting the total number of migrated cells with 200× magnification. Different from the experimental design for the MDA‐MB‐231 cells, the migrated 4T1‐Luc2 cells in the inside of the insert were detected by luciferase activity.

CD44 [2] = target: T1, CD44 (Homo sapiens, UniProt P16070); experiment: Ligand binding ELISA on immobilised CD44; design: purchased Sino Biological Inc. 12211-H08H; conditions: wells coated with 10 μg/ml CD44, 2 h, OD 450 nm; for CD44 binding activity of peptides: biotinylated peptides, modified peptides compared with parental peptides; for binding to immobilised CD44: HRP-conjugated recombinant proteins
Experimental: Plate wells (9018; Corning Costar) were coated with 10 μg/ml of CD44 (12211‐H08H; Sino Biological Inc.) in PBS (pH 7.2) and then blocking for 1 h with the blocking buffer including 3% milk in PBS. For the stability binding experiments, the PTX3‐devired biotinylated peptides were pre‐incubated in serum for 1, 2, 4 or 6 h. For the binding experiments, the horseradish peroxidase (HRP)‐conjugated recombinant PTX3, PTX3/N, PTX3/C and PTX3NA or PTX3‐devired biotinylated peptides AD9, GR9, P2rdAD9 and P12rdGR9 (32310; LEADGENE) was responded in the well for 2 h. For the peptide of competition experiments, the PTX3‐devired biotinylated peptides RI37 and GI40 were diluted at the indicated concentration in PBS. After 2 h, PBS washed three times and then incubated with 5 μg/ml HRP‐conjugated PTX3 in PBS for 1 h at room temperature (RT). For the antibody competition experiments, Ab‐10 and Ab‐49 were incubated with 5 μg/ml HRP‐conjugated PTX3 in PBS for 2 h at RT. After incubation, the mixtures was responded in the well for 1 h at RT and then PBS washed three times, tetramethyl benzidine (TMB) was used to detect the bound HRP conjugate. After 15 min, the peroxidase reaction was stopped by adding 0.1 M H2SO4. Next, ELISA plate reader was used to detect the optical densities at 450 nm.
Target sequence in this assay (P16070 21-220 limits assumed): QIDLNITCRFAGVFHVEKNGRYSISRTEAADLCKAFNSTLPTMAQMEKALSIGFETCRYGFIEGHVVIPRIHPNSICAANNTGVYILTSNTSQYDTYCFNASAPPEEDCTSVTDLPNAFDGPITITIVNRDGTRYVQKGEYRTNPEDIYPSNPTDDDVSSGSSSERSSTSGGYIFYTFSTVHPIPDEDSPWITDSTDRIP

PTX3 = conditions: read-out: KD for PTX3 binding; cited from earlier work
Source text: However, knockdown of CD44 enhanced both JNK and p38 activity, implying that blockade of the PTX3/CD44 interaction positively compensates for JNK and p38 activity.

MDA-MB-231 cells [3] = experiment: Sphere formation assay; format: cell-based, human; conditions: MDA-MB-231 cells treated with the recombinant protein
Experimental: Note that 5 × 10^3 MDA‐MB‐231 cells were seeded in ultralow attachment plates (Corning) per well. Then, cultured in conditional medium containing the treatment of TGF‐β1, PTX3, PTX3NA, RI37, GI40, IgG1κ, PTX3 Ab‐10 or PTX3 Ab‐49 and the DMEM/F12 (Gibco) added with B27 (Invitrogen), 10 ng/ml bFGF (Peprotech) and 20 ng/ml EGF (Abcam). Number of spheres was calculated by microscope after 2 weeks.

MDA-MB-231 cells [4] = experiment: Transwell migration and Matrigel invasion assays; format: cell-based, human; conditions: treatment in lower well, 18 h
Source text: as §1

CD44 [5] = target: T1, CD44; experiment: Surface plasmon resonance (BIAcore) of N-terminal CD44 on immobilised full-length PTX3; format: binding; conditions: mean ± standard deviation
Source text: The BIAcore 3000 system (GE Healthcare Co. Ltd.) was used to determine the direct protein interaction between the full‐length PTX3 (#1826‐TS; R&D Systems) and the N‐terminal of CD44 (#CD44‐3961H; Creative Biomart). Full‐length PTX3 was immobilised onto a CM5 sensor chip (GE Healthcare Co. Ltd.); the immobilisation level was 4000–6000 response units using amine‐coupling chemistry. Briefly, a mixture of 1‐Ethyl‐3‐(3‐dimethylaminopropyl) carbodiimide hydrochloride (EDC) and N‐hydroxysuccinimide activated the surface of the chip, and then diluted full‐length PTX3 (10 μg/ml in acetate buffer pH 3) was injected into the flow cells for immobilisation. Finally, the remaining activated groups were blocked by ethanolamine. The binding parameters of the experiment were measured over a 1‐min association phase and then followed by a 2‐min dissociation phase at a fluid flow rate of 10 μl/min. Phosphate‐buffered saline (PBS, pH 7.2) was used as the analyte running buffer; 0.05% sodium dodecyl sulphate was used to regenerate the chip surface before the next analyte concentration was applied. The 1:1 Langmuir binding model (BIAevaluation 4.1; GE Healthcare Co. Ltd.) were performed to calculate its corresponding association and dissociation rate constants to determine the affinity.
Target sequence in this assay (P16070 32-120 limits assumed): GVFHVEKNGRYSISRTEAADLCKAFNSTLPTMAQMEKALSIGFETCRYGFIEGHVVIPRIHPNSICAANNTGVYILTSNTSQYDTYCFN

[6] = BIAcore 3000, full-length PTX3 amine-coupled to CM5 chip, N-terminal CD44 as analyte, PBS pH 7.2, 1:1 Langmuir model

CC(C)(C)c1ccc(S(=O)(=O)/C=C/C#N)cc1 [BAY 11‐7085]
PTX3-induced RANKL, TWIST2, MMP2 and NANOG transcription with pathway inhibitors [1]: significantly hampered

COc1cccc(-c2cc(=O)c3ccccc3o2)c1N [PD98059]
PTX3-induced RANKL, TWIST2, MMP2 and NANOG transcription with pathway inhibitors [1]: significantly hampered

COC[C@H]1OC(=O)c2coc3c2[C@@]1(C)C1=C(C3=O)[C@@H]2CCC(=O)[C@@]2(C)C[C@H]1OC(C)=O [wortmannin]
PTX3-induced RANKL, TWIST2, MMP2 and NANOG transcription with pathway inhibitors [1]: significantly hampered

AD9: peptide, PTX3 amino acids 209–217 (ACIWVKATD; also: biotin, position not given here)
PTX3-induced migration of 4T1-Luc2 cells (4T1-Luc2 cells): efficiently inhibited
CD44 binding activity of peptides (CD44 [2]): significantly high binding activity

GR9: peptide, PTX3 amino acids 352–360 (GGAESCHIR; also: biotin, position not given here)
PTX3-induced migration of 4T1-Luc2 cells (4T1-Luc2 cells): efficiently inhibited
CD44 binding activity of peptides (CD44 [2]): significantly high binding activity

PTX3/N: recombinant truncated mutant, N‐terminus of PTX3, amino acids 19–182
binding to immobilised CD44 (CD44 [2]): not

TSG‐6: secretory protein, CEBPD‐responsive gene product that interacts with PTX3
Kd (PTX3): 314 to 648 nM

pentraxin 3 [PTX3]
binding to immobilised CD44 (CD44 [2]): could bind
sphere formation, protein alone (MDA-MB-231 cells [3]): promoted
migration and invasion, protein alone (MDA-MB-231 cells [4]): enhanced
association rate constant, K on (CD44 [5]; [6]): 1.30 ± 0.32 × 10^2 M^–1 s^–1
dissociation rate constant, K off (CD44 [5]; [6]): 2.43 ± 2.35 × 10^–6 s^–1
Kd (CD44 [5]; N-terminal CD44 and full-length PTX3 binding, calculated from the rate constants, read-out: equilibrium dissociation constant, K D): 21 ± 12 nM
